{
  "source": "patent EP4603105A1",
  "about": "“PHARMACEUTICAL COMPOSITION CONTAINING CYCLIC COMPOUND HAVING SELECTIVE KRAS INHIBITORY EFFECT AGAINST HRAS AND NRAS” (CHUGAI SEIYAKU KABUSHIKI KAISHA, priority 2022, dated 2024)",
  "key": {"HRAS wild-type protein": {"biological_target": "HRAS wild-type protein (Homo sapiens, UniProt P01112)", "sequence (P01112 whole entry)": "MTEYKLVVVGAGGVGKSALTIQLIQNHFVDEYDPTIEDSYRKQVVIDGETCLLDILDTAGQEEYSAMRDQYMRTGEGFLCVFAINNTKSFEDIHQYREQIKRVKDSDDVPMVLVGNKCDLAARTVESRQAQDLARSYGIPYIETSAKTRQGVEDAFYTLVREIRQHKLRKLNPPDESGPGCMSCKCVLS", "test": "Binding to HRAS by surface plasmon resonance (SPR), KD and KD ratio to KRAS", "method_in_brief": "(§1)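 SPR, 30°C: Avi-biotin RAS·GDP captured via Biotin CAPture (~100–300 RU); running buffer HBS pH 7.4, 1 mM DTT, 10 mM MgCl2, 0.01% Tween 20, 10 µM GDP, 4% DMSO. Single-cycle kinetics, 100 µL/min, 75 s injections; 1:1 model → KD.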"}, "[1]": {"test_system": "human lung cancer strain NCI-H441", "format": "cell-based", "method_in_brief": "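Proliferation was scored by […] measured after the reagent was added to cultures kept at 37°C in 5% carbon dioxide.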"}, "[2]": {"biological_target": "GDP-bound NRAS wild-type protein (Homo sapiens, UniProt P01111)", "sequence (P01111 whole entry)": "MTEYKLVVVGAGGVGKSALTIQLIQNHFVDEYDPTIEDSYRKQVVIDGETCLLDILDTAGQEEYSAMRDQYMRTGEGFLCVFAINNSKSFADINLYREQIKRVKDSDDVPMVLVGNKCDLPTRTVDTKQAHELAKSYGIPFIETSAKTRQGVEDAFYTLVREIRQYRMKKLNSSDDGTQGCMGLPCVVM", "test": "Binding to NRAS by surface plasmon resonance (SPR), KD and KD ratio to KRAS", "method_in_brief": "as §1"}, "[3]": {"conditions": "ratio of the KD value with respect to HRAS wild-type protein to the KD value with respect to KRAS"}, "[4]": {"conditions": "ratio of the KD value with respect to GDP-bound NRAS wild-type protein to the KD value with respect to KRAS"}, "[5]": {"conditions": "ratio of KD for HRAS wild-type protein to KD for KRAS"}, "[6]": {"conditions": "ratio of KD for GDP-bound NRAS wild-type protein to KD for KRAS"}},
  "note": "pIC50: −log10 of the molar value. *1 amine or outer side, *2 acyl side, *3 side chain or, on linkers, in order; H or OH if unused. Where a SMILES comes first, the peptide text is derived from it. Bridges are numbered along the chain shown (N, C = ends). [ ]: non-standard residue; d: D form. The star is where a group is joined. hPhe(3,5-F2-4-CF3) = N[C@@H](CCc1cc(F)c(C(F)(F)F)c(F)c1)C(=O)O; hPhe(3-Cl-4-CF3) = N[C@@H](CCc1ccc(C(F)(F)F)c(Cl)c1)C(=O)O; NPrPhe(4-CF3) = CCCN[C@@H](Cc1ccc(C(F)(F)F)cc1)C(=O)O; dαMeAlg = C[C@](CC=[*:3])(N[*:1])C(=O)[*:2]; NMeGly(cPent) = CN[C@H](C(=O)O)C1CCCC1; NMeSer(allyl) = C=CCOC[C@H](NC)C(=O)O; Hyp = O=C(O)[C@@H]1C[C@@H](O)CN1; NMeD = CN[C@@H](CC(=O)O)C(=O)O; NMeL = CN[C@@H](CC(C)C)C(=O)O; Morpholide = C1CN(*)CCO1; Ac5c = NC1(C(=O)O)CCCC1; Aze = O=C(O)[C@@H]1CCN1; Sar = CNCC(=O)O",
  "data": [
    {"smiles": "CCCN(C)C(=O)[C@@H]1CC(=O)N(C)[C@@H](CCOC)C(=O)N[C@@H]([C@@H](C)CC)C(=O)N(C)CC(=O)N(C)[C@H]2C/C=C\\CCN(C2=O)[C@@H](Cc2ccc(C(F)(F)F)cc2)C(=O)N(C)CC(=O)N[C@@H](CCc2cc(F)c(C(F)(F)F)c(F)c2)C(=O)N2C[C@@H](C)C[C@H]2C(=O)NC2(CC(C)(C)C2)C(=O)N(C)[C@@H](C2CCCC2)C(=O)N1C", "note": "[PP1974]", "values": [
      {"measurement": "HRAS /KRAS", "setting": "HRAS wild-type protein; [3]", "value": "A (a compound having 10 or more and less than 20 is denoted as A)"},
      {"measurement": "pIC50", "setting": "[1]", "value": 7.30},
      {"measurement": "NRAS /KRAS", "setting": "[2]; [4]", "value": "A (a compound having 10 or more and less than 20 is denoted as A)"}
    ]},
    {"smiles": "CC[C@H](C)[C@@H]1NC(=O)[C@H](CC(C)C)NC(=O)C[C@@H](C(=O)N2CCOCC2)N(C)C(=O)[C@H](C2CCCC2)N(C)C(=O)C2(CCCC2)NC(=O)[C@@H]2CCCN2C(=O)[C@H](CCc2cc(F)c(C(F)(F)F)c(F)c2)NC(=O)CN(C)C(=O)[C@H](Cc2ccc(C(F)(F)F)cc2)N2CCCCC[C@@H](C2=O)N(C)C(=O)CN(C)C1=O", "note": "[PP0516]", "values": [
      {"measurement": "HRAS /KRAS", "setting": "HRAS wild-type protein; [3]", "value": "B (a compound having 3 or more and less than 10 is denoted as B)"},
      {"measurement": "pIC50", "setting": "[1]", "value": 6.34},
      {"measurement": "NRAS /KRAS", "setting": "[2]; [4]", "value": "B (a compound having 3 or more and less than 10 is denoted as B)"}
    ]},
    {"smiles": "CCC[C@H]1C(=O)N[C@@H]([C@@H](C)CC)C(=O)N(C)CC(=O)N(C)[C@H]2C/C=C\\CCN(C2=O)[C@@H](Cc2ccc(C)cc2)C(=O)N(C)CC(=O)N[C@@H](CCc2cc(F)c(C(F)(F)F)c(F)c2)C(=O)N2CC3(CC3)C[C@H]2C(=O)NC2(CC(C)(C)C2)C(=O)N(C)[C@@H](CC(F)(F)F)C(=O)N(C)[C@H](C(=O)N(C)C)CC(=O)N1C", "note": "[PP3003]", "values": [
      {"measurement": "HRAS /KRAS", "setting": "HRAS wild-type protein; [5]", "value": "A (a compound having 10 or more and less than 20 is denoted as A)"},
      {"measurement": "pIC50", "setting": "[1]", "value": 7.51},
      {"measurement": "NRAS /KRAS", "setting": "[2]; [6]", "value": "AA (a compound having 20 or more is denoted as AA)"}
    ]},
    {"smiles": "CCO[C@@H]1C[C@H]2C(=O)NC3(CCC3)C(=O)N(C)[C@@H](C3CCCC3)C(=O)N(C)[C@H](C(=O)N(C)CCOC)CC(=O)N(C)[C@@H](CC)C(=O)N[C@@H]([C@@H](C)CC)C(=O)N(C)CC(=O)N(C)[C@H]3C/C=C\\CCN(C3=O)[C@@H](Cc3ccc(C(F)(F)F)cc3)C(=O)N(C)CC(=O)N[C@@H](CCc3ccc(C(F)(F)F)c(OC)c3)C(=O)N2C1", "note": "[PP1321]", "values": [
      {"measurement": "HRAS /KRAS", "setting": "HRAS wild-type protein; ratio of KD with respect to HRAS wild-type protein to KD with respect to KRAS", "value": "B (a compound having 3 or more and less than 10 is denoted as B)"},
      {"measurement": "pIC50", "setting": "[1]", "value": 7.86},
      {"measurement": "NRAS /KRAS", "setting": "[2]; ratio of KD with respect to GDP-bound NRAS wild-type protein to KD with respect to KRAS", "value": "A (a compound having 10 or more and less than 20 is denoted as A)"}
    ]},
    {"smiles": "CCC[C@H]1C(=O)N[C@@H](C2CCCC2)C(=O)N(C)CC(=O)N(C)[C@H]2C/C=C\\CCN(C2=O)[C@@H](Cc2ccc(C)cc2)C(=O)N(C)CC(=O)N[C@@H](CCc2ccc(C(F)(F)F)c(Cl)c2)C(=O)N2C[C@H](OCC)C[C@H]2C(=O)NC2(CC(C)(C)C2)C(=O)N(C)[C@@H](CC(C)(C)C)C(=O)N(C)[C@H](C(=O)N(C)C)CC(=O)N1C", "note": "[PP2196]", "values": [
      {"measurement": "HRAS /KRAS", "setting": "HRAS wild-type protein; [3]", "value": "B (a compound having 3 or more and less than 10 is denoted as B)"},
      {"measurement": "pIC50", "setting": "[1]", "value": 8.18},
      {"measurement": "NRAS /KRAS", "setting": "[2]; [4]", "value": "A (a compound having 10 or more and less than 20 is denoted as A)"}
    ]},
    {"smiles": "CCC[C@H]1C(=O)N[C@@H]([C@@H](C)CC)C(=O)N2CCC[C@H]2C(=O)N(C)[C@H]2C/C=C\\CCN(C2=O)[C@@H](Cc2ccc(C)cc2)C(=O)N(C)CC(=O)N[C@@H](CCc2ccc(C(F)(F)F)c(OC)c2)C(=O)N2C[C@H](OCC)C[C@H]2C(=O)N(C)C2(CCC2)C(=O)N(C)[C@@H](C2CCCC2)C(=O)N(C)[C@H](C(=O)N(C)C)CC(=O)N1C", "note": "[PP2332]", "values": [
      {"measurement": "HRAS /KRAS", "setting": "HRAS wild-type protein; [3]", "value": "B (a compound having 3 or more and less than 10 is denoted as B)"},
      {"measurement": "pIC50", "setting": "[1]", "value": 8.42},
      {"measurement": "NRAS /KRAS", "setting": "[2]; [4]", "value": "A (a compound having 10 or more and less than 20 is denoted as A)"}
    ]},
    {"smiles": "CCCN1C(=O)[C@@H]2CCN2C(=O)CN(C)C(=O)[C@H]([C@@H](C)CC)NC(=O)[C@H](CC(C)C)N(C)C(=O)C[C@@H](C(=O)N2CCOCC2)NC(=O)[C@H](C2CCCC2)N(C)C(=O)C2(CCCC2)NC(=O)[C@@H]2CCCN2C(=O)[C@H](CCc2ccc(C(F)(F)F)c(Cl)c2)NC(=O)CN(C)C(=O)[C@@H]1Cc1ccc(C(F)(F)F)cc1", "note": "[PP0349] ([NMeL]I[Sar][Aze][NPrPhe(4-CF3)][Sar][hPhe(3-Cl-4-CF3)]P[Ac5c][NMeGly(cPent)]D-Morpholide; lactam N-11)", "values": [
      {"measurement": "HRAS /KRAS", "setting": "HRAS wild-type protein; [5]", "value": "B (a compound having 3 or more and less than 10 is denoted as B)"},
      {"measurement": "pIC50", "setting": "[1]", "value": 7.12},
      {"measurement": "NRAS /KRAS", "setting": "[2]; [6]", "value": "C (A compound having a KD ratio of 0.1 or more and less than 3 is denoted as C)"}
    ]},
    {"smiles": "CCCN1C(=O)CN(C)C(=O)CN(C)C(=O)[C@H]([C@@H](C)CC)NC(=O)[C@@H]2COCC=CC[C@@](C)(NC(=O)[C@@H]3C[C@@H](OCC)CN3C(=O)[C@H](CCc3cc(F)c(C(F)(F)F)c(F)c3)NC(=O)CN(C)C(=O)[C@@H]1Cc1ccc(C(F)(F)F)cc1)C(=O)N(C)[C@@H](C1CCCC1)C(=O)N(C)[C@H](C(=O)N1CCOCC1)CC(=O)N2C", "note": "[PP0903] ([NMeSer(allyl)]I[Sar][Sar][NPrPhe(4-CF3)][Sar][hPhe(3,5-F2-4-CF3)][Hyp](Et)[dαMeAlg][NMeGly(cPent)][NMeD]-Morpholide; staple 1-9; lactam N-11)", "values": [
      {"measurement": "HRAS /KRAS", "setting": "HRAS wild-type protein; [5]", "value": "C (A compound having a KD ratio of 0.1 or more and less than 3 is denoted as C)"},
      {"measurement": "pIC50", "setting": "[1]", "value": 6.22},
      {"measurement": "NRAS /KRAS", "setting": "[2]; [6]", "value": "B (a compound having 3 or more and less than 10 is denoted as B)"}
    ]}
  ]
}
